# Reference: patent US20230158020A1, “Method for treating RNA viral infections, including COVID-19 (SARS-CoV-2)” (priority 2020, published 2023)
# Read-outs that look alike come from different tables or passages of the source.
# Legend:
# SARS-CoV-2 = type: in vivo
# COVID-19 = conditions: patients with confirmed COVID-19; FVP orally 1600 mg twice a day on day 1, 600 mg twice a day days 2-14, plus interferon-α aerosol 5 million units twice a day; control lopinavir/ritanovir 400 mg/100 mg twice a day; cited from earlier work
smiles,measurement,setting,value
"NC(=O)c1nc(F)c[nH]c1=O [FVP, Favipiravir]",virus elimination rate,SARS-CoV-2; patients with FVP dose <43 mg/kg on day 1,44%
same,virus elimination rate,SARS-CoV-2; patients with FVP dose ≥43 mg/kg on day 1,79%
same,viral clearance,COVID-19,4 days
